Measurements reported in US6737383B1, “Herbicidal oxadiazolidines” (priority 1999, dated 2004).

Legend:
wheat = assay: Test B pre/postemergence wheat; type: in vivo, Triticum aestivum; conditions: Preemergence; for Plant response rating, Wheat: Rate 125 g/ha
Summary of the method: (§1)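 Response is a visual 0-to-10 score relative to untreated plants, where 0 means no effect and 10 means complete control, taken twelve to sixteen days after application. Treatments went onto soil at planting and onto foliage of 1- to 4-leaf plants, using a surfactant-containing non-phytotoxic solvent.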

crabgrass = assay: Test B pre/postemergence crabgrass; type: in vivo, Digitaria sanguinalis; conditions: Preemergence
Summary of the method: as §1

blackgrass = assay: Test B pre/postemergence blackgrass; type: in vivo, Alopecurus myosuroides; conditions: Preemergence
Summary of the method: as §1

morningglory = assay: Test B pre/postemergence morningglory; type: in vivo, Ipomoea hederacea; conditions: Preemergence; for Plant response rating, Morningglory: Rate 125 g/ha
Summary of the method: as §1

rape = assay: Test B pre/postemergence rape; type: in vivo, Brassica napus; conditions: Preemergence; for Plant response rating, Rape: Rate 125 g/ha
Summary of the method: as §1

velvetleaf = assay: Test B pre/postemergence velvetleaf; type: in vivo, Abutilon theophrasti; conditions: Preemergence; for Plant response rating, Velvetleaf: Rate 125 g/ha
Summary of the method: as §1

purple nutsedge = assay: Test B pre/postemergence purple nutsedge; type: in vivo, Cyperus rotundus; conditions: Preemergence
Summary of the method: as §1

pigweed = assay: Test B pre/postemergence pigweed; type: in vivo, Amaranthus retroflexus; conditions: Preemergence; for Plant response rating, Redroot pigweed: Rate 125 g/ha
Summary of the method: as §1

sugar beet = assay: Test B pre/postemergence sugar beet; type: in vivo, Beta vulgaris; conditions: Preemergence; for Plant response rating, Sugarbeets: Rate 125 g/ha
Summary of the method: as §1

wild oat = assay: Test B pre/postemergence wild oat; type: in vivo, Avena fatua; conditions: Preemergence; for Plant response rating, Wild oats: Rate 125 g/ha
Summary of the method: as §1

surinam grass = assay: Test B pre/postemergence surinam grass; type: in vivo, Brachiaria decumbens; conditions: Preemergence
Summary of the method: as §1

bedstraw = assay: Test B pre/postemergence bedstraw; type: in vivo, Galium aparine; conditions: Preemergence
Summary of the method: as §1

soybean = assay: Test B pre/postemergence soybean; type: in vivo, Glycine max; conditions: Preemergence; for Plant response rating, Soybean: Rate 125 g/ha
Summary of the method: as §1

giant foxtail = assay: Test B pre/postemergence giant foxtail; type: in vivo, Setaria faberii; conditions: Preemergence; for Plant response rating, Giant foxtail: Rate 125 g/ha
Summary of the method: as §1

corn = assay: Test B pre/postemergence corn; type: in vivo, Zea mays; conditions: Preemergence
Summary of the method: as §1

cocklebur = assay: Test B pre/postemergence cocklebur; type: in vivo, Xanthium strumarium; conditions: Preemergence
Summary of the method: as §1

[1] = Rate 62 g/ha, scale of 0 to 10 where 0 is no effect and 10 is complete control
[2] = scale of 0 to 10 where 0 is no effect and 10 is complete control
[3] = Rate 125 g/ha, scale of 0 to 10 where 0 is no effect and 10 is complete control
[4] = Rate 250 g/ha, scale 0 to 10 (0 no effect, 10 complete control)
[5] = Rate 500 g/ha, scale of 0 to 10 where 0 is no effect and 10 is complete control
[6] = Rate 250 g/ha, scale 0 (no effect) to 10 (complete control)
[7] = Rate 500 g/ha, scale 0 to 10 (0 no effect, 10 complete control)

CC(C)N(C(=O)n1oc(=O)n(C(C)C)c1=O)c1ccc(Br)cc1 [Compound 691]
Wheat plant response rating (wheat; [1]): 0 | Plant response rating, Wheat (wheat; [2]): 0 | Crabgrass plant response rating (crabgrass; [1]): 9 | Plant response rating, Crabgrass (crabgrass; [3]): 9 | Plant response rating, Crabgrass (crabgrass; [4]): 10 | Blackgrass plant response rating (blackgrass; [1]): 4 | Plant response rating, Blackgrass (blackgrass; [3]): 9 | Plant response rating, Blackgrass (blackgrass; [4]): 10 | Plant response rating, Blackgrass (blackgrass; [5]): 10 | Morningglory plant response rating (morningglory; [1]): 0 | Plant response rating, Morningglory (morningglory; [2]): 0 | Rape plant response rating (rape; [1]): 0 | Plant response rating, Rape (rape; [2]): 3 | Velvetleaf plant response rating (velvetleaf; [1]): 0 | Plant response rating, Velvetleaf (velvetleaf; [2]): 0 | Nutsedge plant response rating (purple nutsedge; [1]): 0 | Redroot pigweed plant response rating (pigweed; [1]): 2 | Plant response rating, Redroot pigweed (pigweed; [2]): 3 | Sugarbeets plant response rating (sugar beet; [1]): 0 | Plant response rating, Sugarbeets (sugar beet; [2]): 2 | Wild oats plant response rating (wild oat; [1]): 2 | Plant response rating, Wild oats (wild oat; [2]): 6 | B. signalgrass plant response rating (surinam grass; [1]): 0 | Plant response rating, B. signalgrass (surinam grass; [3]): 8 | Plant response rating, B. signalgrass (surinam grass; [4]): 9 | Plant response rating, B. signalgrass (surinam grass; [5]): 10 | Bedstraw plant response rating (bedstraw; [1]): 0 | Plant response rating, Bedstraw (bedstraw; [3]): 9 | Plant response rating, Bedstraw (bedstraw; [4]): 9 | Soybean plant response rating (soybean; [1]): 2 | Plant response rating, Soybean (soybean; [2]): 2 | Giant foxtail plant response rating (giant foxtail; [1]): 9 | Plant response rating, Giant foxtail (giant foxtail; [2]): 10 | Corn plant response rating (corn; [1]): 0 | Plant response rating, Corn (corn; [3]): 0 | Plant response rating, Corn (corn; [4]): 0 | Cocklebur plant response rating (cocklebur; [1]): 0 | Plant response rating, Cocklebur (cocklebur; [4]): 0 | Plant response rating, Cocklebur (cocklebur; [5]): 0

COCC(OC)n1c(=O)on(C(=O)N(c2ccc(F)cc2F)C(C)C)c1=O (centres unmarked) [Compound 738]
Plant response rating, Wheat (wheat; [2]): 4 | Wheat plant response rating (wheat; [6]): 5 | Wheat plant response rating (wheat; Rate 62 g/ha, scale 0 to 10): 2 | Wheat plant response rating (wheat; [7]): 8 | Plant response rating, Crabgrass (crabgrass; [3]): 9 | Crabgrass plant response rating (crabgrass; [6]): 9 | Crabgrass plant response rating (crabgrass; Rate 62 g/ha, scale 0 to 10): 8 | Crabgrass plant response rating (crabgrass; [7]): 10 | Plant response rating, Blackgrass (blackgrass; [3]): 10 | Blackgrass plant response rating (blackgrass; [6]): 10 | Blackgrass plant response rating (blackgrass; Rate 62 g/ha, scale 0 to 10): 8 | Blackgrass plant response rating (blackgrass; [7]): 10 | Plant response rating, Morningglory (morningglory; [2]): 1 | Morningglory plant response rating (morningglory; [6]): 2 | Morningglory plant response rating (morningglory; Rate 62 g/ha, scale 0 to 10): 1 | Morningglory plant response rating (morningglory; [7]): 4 | Plant response rating, Rape (rape; [2]): 5 | Rape plant response rating (rape; [6]): 6 | Rape plant response rating (rape; Rate 62 g/ha, scale 0 to 10): 2 | Rape plant response rating (rape; [7]): 8 | Plant response rating, Velvetleaf (velvetleaf; [2]): 1 | Velvetleaf plant response rating (velvetleaf; [6]): 6 | Velvetleaf plant response rating (velvetleaf; Rate 62 g/ha, scale 0 to 10): 0 | Velvetleaf plant response rating (velvetleaf; [7]): 8 | Nutsedge plant response rating (purple nutsedge; [6]): 4 | Nutsedge plant response rating (purple nutsedge; [7]): 8 | Plant response rating, Redroot pigweed (pigweed; [2]): 7 | Redroot pigweed plant response rating (pigweed; [6]): 8 | Redroot pigweed plant response rating (pigweed; Rate 62 g/ha, scale 0 to 10): 6 | Redroot pigweed plant response rating (pigweed; [7]): 8 | Plant response rating, Sugarbeets (sugar beet; [2]): 6 | Sugarbeets plant response rating (sugar beet; [6]): 6 | Sugarbeets plant response rating (sugar beet; Rate 62 g/ha, scale 0 to 10): 3 | Sugarbeets plant response rating (sugar beet; [7]): 8 | Plant response rating, Wild oats (wild oat; [2]): 9 | Wild oats plant response rating (wild oat; [6]): 10 | Wild oats plant response rating (wild oat; Rate 62 g/ha, scale 0 to 10): 4 | Wild oats plant response rating (wild oat; [7]): 10 | B. signalgrass plant response rating (surinam grass; [1]): 6 | Plant response rating, B. signalgrass (surinam grass; [3]): 9 | B. signalgrass plant response rating (surinam grass; [6]): 10 | B. signalgrass plant response rating (surinam grass; [7]): 10 | Plant response rating, Bedstraw (bedstraw; [3]): 0 | Bedstraw plant response rating (bedstraw; [6]): 0 | Bedstraw plant response rating (bedstraw; Rate 62 g/ha, scale 0 to 10): 0 | Bedstraw plant response rating (bedstraw; [7]): 0 | Plant response rating, Soybean (soybean; [2]): 0 | Soybean plant response rating (soybean; [6]): 0 | Soybean plant response rating (soybean; Rate 62 g/ha, scale 0 to 10): 0 | Soybean plant response rating (soybean; [7]): 0 | Plant response rating, Giant foxtail (giant foxtail; [2]): 9 | Giant foxtail plant response rating (giant foxtail; [6]): 10 | Giant foxtail plant response rating (giant foxtail; Rate 62 g/ha, scale 0 to 10): 8 | Giant foxtail plant response rating (giant foxtail; [7]): 10 | Plant response rating, Corn (corn; [3]): 4 | Corn plant response rating (corn; [6]): 7 | Corn plant response rating (corn; Rate 62 g/ha, scale 0 to 10): 0 | Corn plant response rating (corn; [7]): 9 | Plant response rating, Cocklebur (cocklebur; [3]): 0 | Cocklebur plant response rating (cocklebur; [6]): 0 | Cocklebur plant response rating (cocklebur; Rate 62 g/ha, scale 0 to 10): 0 | Cocklebur plant response rating (cocklebur; [7]): 0
